Assay results published in PMC6595003, “Insights into real-time chemical processes in a calcium sensor protein-directed dynamic library” (Nature Communications, 2019).
Values joined by “and” are separate entries in the source; they are usually repeats but may differ in a detail not shown here. Equal entries are not always repeated. “Also recorded” adds a separate entry of the source.

Key:
[1] = tested on: Drosophila model of Alzheimer's disease (motoneuron overexpression of human aβ42arc); test: Fly locomotor activity assay (DAM2 beam breaks); assay type: in vivo
Procedure: (§1) Fig. 9 In vivo effects of compound 3b. Flies with motoneuron overexpression of the human aβ42arc (arctic mutation) (D42Gal4 > aβ42arc) or mock expression (D42Gal4 > LacZ) were fed with 3b (100 μM) or same volume of vehicle DMSO. a Twenty-day old adult abdominal motoneurons were analyzed and synapse number (nc82-positive spots) of the same motoneuron in different flies (16–19) were determined using Imaris, over the confocal 1 µm stacks. Data are plotted in graphs, where each grey triangle (aβ42arc flies fed with vehicle) and green triangle (aβ42arc flies fed with 3b) or each grey circle (control flies fed with vehicle) and green circle (control flies fed with 3b) represents one value. Horizontal line represents mean ± SEM. Data are analyzed statistically with unpaired two-tailored Student’s t test; ***P < 0.001. b Locomotor activity of individual 15 days old flies was recorded for 4 days in Drosophila Activity Monitors (DAM2, Trikinetics)[36], the total number of beam breaks per hour during two consecutive days was analyzed (the activity of the first two days is considered the habituation period and is discarded). Mean ± SEM of three independent experiments with 5–12 flies per condition each, were plotted and analyzed statistically with paired two-tailed Student’s t-test, *P < 0.05. Source data are provided as a Source Data file, ns non significant
(§2) To measure the physiological impact of this synaptic recovery, we evaluated fly locomotor activity. As described previously, overexpression of human aβ42arc peptide leads to severe locomotor dysfunction starting at day 15–20 post-eclosion[35].
(§3) Fifteen-day-old males were placed individually in locomotor activity monitor tubes (DAM2, TriKinetics Inc.) The DAM2 system automatically counts the number of beam breaks for flies walking in a horizontal tube over a specific period of time. This setup allowed for characterization of the locomotor and behavior rhythms of Drosophila. The tubes contained fly food with 100 µM compound 3b or same volume of DMSO. Flies were raised at 25 °C in 12-h light/12-h dark. In the first 2 days flies get habituated and the next 2 days the locomotor activity was quantified.

[2] = Fly locomotor activity assay (DAM2 beam breaks); assay type: in vivo, Drosophila
Procedure: as §1, §2, §3

[3] = Parallel artificial membrane permeability assay (PAMPA-BBB); assay type: in vitro ADME; conditions: for Pe (10-6 cm s-1) Experimental 1 / Pe (10-6 cm s-1) Experimental 2 / Pe (10-6 cm s-1) Experimental 3: source data
Excerpt: The PAMPA methodology is a high-throughput technique to predict passive permeability through biological membranes that employs a brain lipid porcine as membrane. […]
From this equation and following the pattern established in the literature for BBB permeation prediction2 we could classify compounds as CNS + when they present a permeability > 4.50 x 10-6 cm s-1. Source data are provided as a Source Data file. […]
Parallel artificial membrane permeability assays. Prediction of the brain penetration was evaluated using a parallel artificial membrane permeability assay (PAMPA).4 Ten commercial drugs, phosphate buffer saline solution at pH 7.4 (PBS). DMSO and dodecane were purchased from Sigma, Across organics, Aldrich and Fluka. The porcine […]
plate was a 96-well filtrate plate (Multiscreen® IP Sterile Plate PDVF membrane, pore […]
MAIPS4510) and the acceptor plate was an indented 96-well plate (Multiscreen®, catalog no. MAMCS9610) both from Millipore. Filter PDVF […]
membrane units (diameter 30 mm, pore size 0.45 µm) from Symta were used to filter the samples. A 96-well plate UV reader (Thermoscientific, Multiskan spectrum) was used for the UV measurements.

[4] = tested on: Drosophila model of Alzheimer's disease (motoneuron overexpression of human aβ42arc); test: Synapse number quantification at the neuromuscular junction of flies fed with compound; assay type: in vivo; conditions: vs DMSO
Procedure: Aβ42arc overexpressing flies and the corresponding control (LacZ expression) were fed with 3b or the solvent, DMSO, throughout all life cycle (Fig. 9 and see Methods section).
as §1, with “Data are plotted in graphs, where each grey triangle (aβ42arc flies fed with vehicle) and green triangle (aβ42arc flies fed with 3b) or each grey circle (control flies fed with vehicle) and green circle (control flies fed with 3b) represents one value. Horizontal line represents mean ± SEM.” left out, “Source data are provided as a Source Data file, ns non significant” left out
The Drosophila neuromuscular junction (NMJ) allows the accurate quantitative determination of the in vivo effects of drug application on a single glutamatergic synapse. […]

[5] = molecular target: T1, NCS-1/Ric8a interaction (Homo sapiens, UniProt P62166); test: Co-IP binding assay of human NCS-1 and V5-tagged Ric8a in transfected HEK cells; assay type: cell-based; conditions: compound 20 μM; for modulation of the NCS-1/Ric8a binding: compared with DMSO (basal binding 100%); for Densitometry of V5-Ric8a co-immunoprecipitated with NCS-1, exp4: DMSO in the same experiment 3222255; for Densitometry of V5-Ric8a co-immunoprecipitated with NCS-1, exp3: DMSO in the same experiment 4613104; for Densitometry of V5-Ric8a co-immunoprecipitated with NCS-1, exp2: DMSO in the same experiment 9508518; for Densitometry of V5-Ric8a co-immunoprecipitated with NCS-1, exp1: DMSO in the same experiment 19247016
T1 construct: expressed in transfected cells; host or cells: HEK293 cells (Dharmacon)
Excerpt: Mean ± SD from three independent experiments. The curves represent the least squares fitting of the experimental data to a 1:1 stoichiometry. To properly compare the different curves, intensities were normalized and represented. […] Input represents 1/10 cell lysates before IP. Quantifications of each lane from four experiments are shown below the blots. Bars represent percentage of NCS-1/ Ric8a binding (mean ± SD) normalized to DMSO. […] CNS + (green) for Pe > 4.47 × 10^−6 cm s^−1, CNS- (red) for compounds with Pe < 4.47 × 10^–6 cm s^−1. […] Mean ± SD from three independent experiments. […] Then, the percentage of picnotic bodies over the total nuclei was analyzed. Mean ± SD from three independent experiments. Paired two-tailed Student’s test ***P˂0.001; **P < 0.01; *P < 0.05. Source data are provided as a Source Data file. IP immunoprecipitation, WB western blot
Binding assays with NCS-1 and Ric8a in co-transfected HEK cells were carried out to study the modulation effect of compounds 3a, 3b and 3d in the protein-protein interaction (Fig. 6b).
hNCS-1 and V5-tagged hRic8a were co-transfected into HEK293 cells (Dharmacon) using Lipofectamine 2000 (Invitrogen)[13]. After 24 h, after transfection, DMSO alone or the compounds dissolved in DMSO (20 μM) were added to the culture cells. Then, 24 h after transfection, cells were lysed with Lysis buffer (150 mM NaCl, 1.0% Nonidet P-40, 50 mM Tris, pH 8.0) in the presence of the compounds (20 μM), whose concentration was maintained throughout the immunoprecipitation assay. Precleared lysates were incubated overnight (12 h) at 4 °C with mouse anti-NCS-1 (1:500; Cell Signaling). Samples were subsequently incubated overnight with Protein-G-Sepharose (Sigma-Aldrich), washed and eluted from the Sepharose. Samples were analyzed by Western blot following standard procedures. […] Original representative western blots are found in Source Data file.

[6] = 100 μM in food, one value per fly
[7] = pig, PAMPA-BBB, pH 7.4, 5% DMSO, 2 h 30 min at 25 °C, mean ± SD, read-out: Pe, in vitro permeability
[8] = PAMPA-BBB, pH 7.4, 5% DMSO, 2 h 30 min at 25 °C, mean ± SD

T1 sequence (P62166 2-190 limits assumed): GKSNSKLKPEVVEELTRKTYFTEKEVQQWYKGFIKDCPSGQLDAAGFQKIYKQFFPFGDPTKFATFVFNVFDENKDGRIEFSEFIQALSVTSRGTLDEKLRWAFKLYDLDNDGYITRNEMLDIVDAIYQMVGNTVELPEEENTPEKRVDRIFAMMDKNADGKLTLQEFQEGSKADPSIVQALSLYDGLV

Compound | Pe (10-6 cm s-1) Experimental 1 [3] | Pe (10-6 cm s-1) Experimental 2 [3] | Pe (10-6 cm s-1) Experimental 3 [3] | modulation of the NCS-1/Ric8a binding [5] | Densitometry of V5-Ric8a co-immunoprecipitated with NCS-1, exp4 [5] | Densitometry of V5-Ric8a co-immunoprecipitated with NCS-1, exp3 [5] | Densitometry of V5-Ric8a co-immunoprecipitated with NCS-1, exp2 [5] | Densitometry of V5-Ric8a co-immunoprecipitated with NCS-1, exp1 [5] | Pe, in vitro permeability [3, 8] | Papp at 2.5 h [3, 7] [×10⁻⁶ cm/s] | other results
O=C(Cc1c[nH]c2ccccc12)NN=Cc1ccc([N+](=O)[O-])c(O)c1 (mixture of isomers) [3b] | 12.9 10-6 cm s-1 | 12.33 10-6 cm s-1 | 13.52 10-6 cm s-1 | strong binding; also recorded: promote the stabilization of the NCS-1/Ric8a interaction | 9362004 | 7268347 | 15828581 | 32007200 | – | – | beam breaks per hour of individual flies, aβ42arc + 3b, Experiment 1 [1, 6]: 327 and 264 and 198 and 235 and 195 and 320 and 256 and 104 and 272 and 274 and 106 and 220; beam breaks per hour of individual flies, aβ42arc + 3b, Experiment 2 [1, 6]: 295 and 321 and 87 and 159 and 125 and 199 and 157 and 279 and 287 and 274; beam breaks per hour of individual flies, aβ42arc + 3b, Experiment 3 [1, 6]: 140 and 89 and 136 and 171 and 263 and 178 and 216 and 151 and 91 and 146 and 160; locomotor activity of aβ42arc flies ([1]; fed 100 μM, 15 days old flies, vs DMSO): locomotor deficit was recovered; beam breaks per hour of individual flies, control + 3b, Experiment 1 [2, 6]: 102 and 219 and 449 and 504 and 422 and 192 and 564; beam breaks per hour of individual flies, control + 3b, Experiment 2 [2, 6]: 281 and 38 and 295 and 200 and 178 and 147; beam breaks per hour of individual flies, control + 3b, Experiment 3 [2, 6]: 81 and 263 and 78 and 204 and 169; locomotor activity of control flies ([2]; fed 100 μM, vs DMSO): does not reveal a significant difference; Papp at 2.5 h, 0.04 mg/mL [3, 7]: 12.9 ± 0.8 ×10⁻⁶ cm/s; synapse number in aβ42arc flies ([4]; fed 100 μM throughout life cycle, 20-day old adults): pathological phenotype was largely suppressed; synapse number in control (LacZ) flies ([4]; fed 100 μM): no effect
O=C(NN=Cc1ccc([N+](=O)[O-])c(O)c1)C(O)c1ccccc1 (mixture of isomers) [3d] | 2.5 10-6 cm s-1 | 2.04 10-6 cm s-1 | 2.94 10-6 cm s-1 | strong binding; also recorded: promote the stabilization of the NCS-1/Ric8a interaction | 6181447 | 9737953 | 13428024 | 25716501 | did not show good permeability values | 2.5 ± 0.6 | –
O=C(N/N=C/c1ccc([N+](=O)[O-])c(O)c1)c1ccco1 [3a] | 1.7 10-6 cm s-1 | 1.25 10-6 cm s-1 | 2.25 10-6 cm s-1 | reduced binding; also recorded: inhibitor similar to CPZ | 1982719 | 1649426 | 4838154 | 13971167 | did not show good permeability values | 1.7 ± 0.7 | Prediction (penetration in the CNS) ([3]; Supplementary Table 5): CNS -
